Results reported in ChEMBL document CHEMBL3885881, “DrugMatrix”.

Organism: Rattus norvegicus
Assay: DrugMatrix - Regimen: Daily Repeat
Type: toxicity, organism-based, Sprague-Dawley
Set-up: regimen Daily Repeat, gender Male, age 6-8 weeks
Conditions: in vivo, po, route oral GAVAGE, vehicle .5 % CMC; for ABSOLUTE BASOPHIL / ABSOLUTE EOSINOPHIL / ABSOLUTE LYMPHOCYTE / ABSOLUTE MONOCYTE / ABSOLUTE SEGMENTED NEUTROPHIL / BASOPHIL / EOSINOPHIL / ERYTHROCYTE COUNT / HEMATOCRIT / HEMOGLOBIN / LEUKOCYTE COUNT / LYMPHOCYTE / MEAN CORPUSCULAR HEMOGLOBIN / MEAN CORPUSCULAR HEMOGLOBIN CONCENTRATION / MEAN CORPUSCULAR VOLUME / MONOCYTE / NEUTROPHIL / NUCLEATED RED BLOOD CELLS / PLATELET COUNT: tissue Blood; for ALANINE AMINOTRANSFERASE / ALBUMIN / ALKALINE PHOSPHATASE / ASPARTATE AMINOTRANSFERASE / BLOOD UREA NITROGEN / CARBON DIOXIDE / CHLORIDE / CHOLESTEROL / CREATINE PHOSPHOKINASE / CREATININE / GLUCOSE / LACTATE DEHYDROGENASE / LIPASE / PHOSPHORUS / POTASSIUM / SODIUM / TOTAL BILIRUBIN / TOTAL PROTEIN / URIC ACID: tissue Plasma
[1] = 0 mg/kg, 72 h, dose level Control, time 3 day
[2] = 0 mg/kg, 120 h, dose level Control, time 5 day
[3] = 25 mg/kg, 72 h, dose level Low, time 3 day

## C[C@](O)(CS(=O)(=O)c1ccc(F)cc1)C(=O)Nc1ccc(C#N)c(C(F)(F)F)c1 [(R)-BICALUTAMIDE]
[1]
  ABSOLUTE BASOPHIL: 0 CELLS/uL
  ABSOLUTE EOSINOPHIL: 171.33 CELLS/uL
  ABSOLUTE LYMPHOCYTE: 13776.5 CELLS/uL
  ABSOLUTE MONOCYTE: 180.83 CELLS/uL
  ABSOLUTE SEGMENTED NEUTROPHIL: 1121.33 CELLS/uL
  BASOPHIL: 0%
  EOSINOPHIL: 1%
  ERYTHROCYTE COUNT: 5.56 x10E6/uL
  HEMATOCRIT: 34.75%
  HEMOGLOBIN: 13.68 G/DL
  LEUKOCYTE COUNT: 15.25 x10E3/uL
  LYMPHOCYTE: 90.17%
  MEAN CORPUSCULAR HEMOGLOBIN: 24.6 pg
  MEAN CORPUSCULAR HEMOGLOBIN CONCENTRATION: 39.4 G/DL
  MEAN CORPUSCULAR VOLUME: 62.48 fL
  MONOCYTE: 1.17%
  NEUTROPHIL: 7.67%
  NUCLEATED RED BLOOD CELLS: 0 /100WBC
  PLATELET COUNT: 1342 x10E3/uL
  ALANINE AMINOTRANSFERASE: 49.67 u/L
  ALBUMIN: 4.15 G/DL
  ALKALINE PHOSPHATASE: 346.83 u/L
  ASPARTATE AMINOTRANSFERASE: 108.17 u/L
  BLOOD UREA NITROGEN: 17.33 mg/dL
  CARBON DIOXIDE: 25 mmol/L
  CHLORIDE: 100.83 MEQ/L
  CHOLESTEROL: 66.83 mg/dL
  CREATINE PHOSPHOKINASE: 788 u/L
  CREATININE: 0.18 mg/dL
  GLUCOSE: 151.67 mg/dL
  LACTATE DEHYDROGENASE: 982.5 u/L
  LIPASE: 10.33 u/L
  PHOSPHORUS: 11.23 mg/dL
  POTASSIUM: 6.37 MEQ/L
  SODIUM: 141.02 MEQ/L
  TOTAL BILIRUBIN: 0.18 mg/dL
  TOTAL PROTEIN: 5.9 G/DL
  URIC ACID: 1.8 mg/dL
[2]
  ABSOLUTE BASOPHIL: 0 CELLS/uL
  ABSOLUTE EOSINOPHIL: 69 CELLS/uL
  ABSOLUTE LYMPHOCYTE: 13632.83 CELLS/uL
  ABSOLUTE MONOCYTE: 139.83 CELLS/uL
  ABSOLUTE SEGMENTED NEUTROPHIL: 1225 CELLS/uL
  BASOPHIL: 0%
  EOSINOPHIL: 0.33%
  ERYTHROCYTE COUNT: 5.52 x10E6/uL
  HEMATOCRIT: 33.98%
  HEMOGLOBIN: 13.22 G/DL
  LEUKOCYTE COUNT: 15.07 x10E3/uL
  LYMPHOCYTE: 90.83%
  MEAN CORPUSCULAR HEMOGLOBIN: 23.95 pg
  MEAN CORPUSCULAR HEMOGLOBIN CONCENTRATION: 38.9 G/DL
  MEAN CORPUSCULAR VOLUME: 61.53 fL
  MONOCYTE: 0.83%
  NEUTROPHIL: 8%
  NUCLEATED RED BLOOD CELLS: 0 /100WBC
  PLATELET COUNT: 1196 x10E3/uL
  ALANINE AMINOTRANSFERASE: 49.17 u/L
  ALBUMIN: 4.2 G/DL
  ALKALINE PHOSPHATASE: 352.33 u/L
  ASPARTATE AMINOTRANSFERASE: 89.67 u/L
  BLOOD UREA NITROGEN: 18 mg/dL
  CARBON DIOXIDE: 27.67 mmol/L
  CHLORIDE: 101 MEQ/L
  CHOLESTEROL: 72.83 mg/dL
  CREATINE PHOSPHOKINASE: 417.5 u/L
  CREATININE: 0.18 mg/dL
  GLUCOSE: 150.5 mg/dL
  LACTATE DEHYDROGENASE: 517.33 u/L
  LIPASE: 9 u/L
  PHOSPHORUS: 11.87 mg/dL
  POTASSIUM: 6.57 MEQ/L
  SODIUM: 143.62 MEQ/L
  TOTAL BILIRUBIN: 0.2 mg/dL
  TOTAL PROTEIN: 6.08 G/DL
  URIC ACID: 1.45 mg/dL
[3]
  ABSOLUTE BASOPHIL: 0 CELLS/uL
  ABSOLUTE EOSINOPHIL: 0 CELLS/uL
  ABSOLUTE LYMPHOCYTE: 11565 CELLS/uL
  ABSOLUTE MONOCYTE: 208.33 CELLS/uL
  ABSOLUTE SEGMENTED NEUTROPHIL: 926.67 CELLS/uL
  BASOPHIL: 0%
  EOSINOPHIL: 0%
  ERYTHROCYTE COUNT: 5.66 x10E6/uL
  HEMATOCRIT: 35.2%
  HEMOGLOBIN: 13.9 G/DL
  LEUKOCYTE COUNT: 12.7 x10E3/uL
  LYMPHOCYTE: 91%
  MEAN CORPUSCULAR HEMOGLOBIN: 24.57 pg
  MEAN CORPUSCULAR HEMOGLOBIN CONCENTRATION: 39.47 G/DL
  MEAN CORPUSCULAR VOLUME: 62.23 fL
  MONOCYTE: 1.67%
  NEUTROPHIL: 7.33%
  NUCLEATED RED BLOOD CELLS: 0.33 /100WBC
  PLATELET COUNT: 1165 x10E3/uL
  ALANINE AMINOTRANSFERASE: 46.33 u/L
  ALBUMIN: 4.1 G/DL
  ALKALINE PHOSPHATASE: 367.67 u/L
  ASPARTATE AMINOTRANSFERASE: 75.67 u/L
  BLOOD UREA NITROGEN: 14.33 mg/dL
  CARBON DIOXIDE: 27 mmol/L
  CHLORIDE: 102.67 MEQ/L
  CHOLESTEROL: 80.33 mg/dL
  CREATINE PHOSPHOKINASE: 447.67 u/L
  CREATININE: 0.21 mg/dL
  GLUCOSE: 137.67 mg/dL
  LACTATE DEHYDROGENASE: 242 u/L
  LIPASE: 10.67 u/L
  PHOSPHORUS: 11.97 mg/dL
  POTASSIUM: 6.21 MEQ/L
  SODIUM: 143.67 MEQ/L
  TOTAL BILIRUBIN: 0.2 mg/dL
  TOTAL PROTEIN: 5.87 G/DL
  URIC ACID: 1.37 mg/dL
